Test results published in US7557100B2, “Antibacterial agents” (Pfizer Inc., priority 2005, dated 2009).
≈ marks a conversion by molar mass, not a printed value.

What was measured:
[1] = test system: H. influenzae HI-3542; assay: Microbroth dilution MIC testing against H. influenzae; assay type: cell-based; details: HI3542, H. influenzae 3542, Haemophilus Test Medium, 35° C., 16 to 24 hours, read-out: Minimum Inhibitory Concentration H. influenzae 3542
Protocol: (§1) In this example, the in vitro antibacterial activity of selected compounds was determined against S. aureus and H. influenzae. Except for clarifying or modifying statements, MIC testing followed procedures recommended by the NCCLS^1-2 or followed the descriptions cited below.
(§2) Bacterial Cultures At least the following organisms are included in the screen: Staphylococcus aureus SA-1 (UC-76) and H. influenzae HI-3542. Incubations were at 35° C. Stock bacterial cultures were maintained on Tryptic Soy Agar containing 5% Sheep Blood (BD, Becton Dickinson Microbiology Systems, Cockeysville, Md.), anaerobes were maintained on Anaerobic Blood Agar plates—CDC Formulation (BD), and fastidious organisms were maintained on Chocolate Agar II Plates (BD). Specific conditions of handling are listed below.
Haemophilus was maintained on Chocolate Agar II Plates at room temperature in a candle jar providing a 3 5% CO2 atmosphere.
(§3) Standardized Organism Inocula Frozen stock cultures were used as the initial source of organisms for performing microbroth dilution MIC testing. Stock cultures were passed on their standard growth medium for at least 1 growth cycle (18 24 hours) prior to their use.
(§4) Most bacteria, unless otherwise noted, were prepared directly from agar plates in 10 mL aliquots of the appropriate broth medium. Bacterial cultures were adjusted to the opacity of a 0.5 McFarland Standard (optical density value of 0.28-0.33 on a Perkin-Elmer Lambda EZ150 Spectrophotometer Wellesley, Mass., set at a wavelength of 600 nm).). The adjusted cultures were diluted 400 fold (0.25 mL inoculum+100 mL broth) in growth media to produce a starting suspension of approximately 5×10^5 colony forming units (CFU)/mL. Unless otherwise noted, bacterial strains were tested in cation adjusted Mueller Hinton Broth (CAMHB).
Haemophilus influenzae strains were grown on Chocolate Agar II Plates and tested in Haemophilus Test Medium (Remel, Lenexa, Kans.).
(§5) Test Compound (“Drug”) Preparation Compounds were solubilized in DMSO. Drug stock solutions were prepared on the day of testing. Drugs were weight corrected for assay content where necessary.
(§6) Drug Dilution Tray Preparation Microbroth dilution stock plates were prepared in two dilution series, 64 to 0.06 μg drug/mL and 0.25 to 0.00025 μg drug/mL. For the high concentration series, 200 μL of stock solution (2 mg/mL) was added to duplicate rows of a 96-well microtiter plate. This was used as the first well in the dilution series. Serial two-fold decremental dilutions were made using a BioMek FX robot (Beckman Coulter Inc., Fullerton, Calif.) with 10 of the remaining 11 wells, each of which contained 100 μL of the appropriate solvent/diluent. Row 12 contained solvent/diluent only and served as the control. For tube one of the low concentration series, 200 μL of an 8 μg/mL stock was added to duplicate rows of a 96-well plate. Serial two-fold dilutions were made as described above.
(§7) Daughter plates were spotted (3.2 μL/well) from the stock plates listed above using the BioMek FX robot and were either used immediately or frozen at −70° C. until use.
(§8) Plate Inoculation Aerobic organisms were inoculated (100 μL volumes) into the thawed plates using the BioMek FX robot. The inoculated plates were placed in stacks of no more than 5 and covered with an empty plate. These plates were incubated 16 to 24 hours in ambient atmosphere according to CLSI guidelines^2.
Reading the Test After inoculation and incubation, the degree of bacterial growth was estimated visually with the aid of a Test Reading Mirror (Dynex Technologies 220 16) in a darkened room with a single light shining directly through the top of the microbroth tray. The MIC was the lowest concentration of drug that prevented macroscopically visible growth under the conditions of the test. Testing was performed in duplicate. When the MIC values in duplicate tests varied by 1 well (2 fold), the lower values were reported. If the MICs varied by 2 dilutions, the middle value was reported. […]

[2] = test system: Staphylococcus aureus SA-1 (UC-76); assay: Microbroth dilution MIC testing against S. aureus; assay type: cell-based; details: S. aureus UC76, CAMHB, 35° C., 16 to 24 hours, read-out: Minimum Inhibitory Concentration S. aureus UC76
Protocol: as §1, §2, §3, §4, §5, §6, §7, §8
Reading the Test After inoculation and incubation, the degree of bacterial growth was estimated visually with the aid of a Test Reading Mirror (Dynex Technologies 220 16) in a darkened room with a single light shining directly through the top of the microbroth tray. The MIC was the lowest concentration of drug that prevented macroscopically visible growth under the conditions of the test. Testing was performed in duplicate. When the MIC values in duplicate tests varied by 1 well (2 fold), the lower values were reported. If the MICs varied by 2 dilutions, the middle value was reported. Greater than this 4 fold variance called for the test to be repeated, after which a similar determination was applied to all values.

Compound	MIC [1] [µg/mL]	MIC [2] [µg/mL]
C[C@H]1CN2c3c(cc(-c4cnccn4)c(F)c3F)CC3(C(=O)NC(=O)NC3=O)[C@@H]2[C@@H](C)O1 (relative stereo) [Compound 1, rel-(2S,4R,4aR)-9,10-difluoro-2,4-dimethyl-8-pyrazin-2-yl-1,2,4,4a-tetrahydro-2′H,6H-spiro[1,4-oxazino[4,3-a]quinoline-5,5′-pyrimidine]-2′,4′,6′(1′H,3′H)-trione]	1 (≈ 2.26 µM)	
C[C@H]1CN2c3c(F)cc(-c4cnccn4)cc3CC3(C(=O)NC(=O)NC3=O)[C@@H]2[C@@H](C)O1 (relative stereo) [Compound 15, rel-(2S,4R,4aR)-10-fluoro-2,4-dimethyl-8-pyrazin-2-yl-1,2,4,4a-tetrahydro-2′H,6H-spiro[1,4-oxazino[4,3-a]quinoline-5,5′-pyrimidine]-2′,4′,6′(1′H,3′H)-trione]	4 (≈ 9.4 µM)	1 (≈ 2.35 µM)
C[C@H]1CN2c3c(cc(-c4cnccn4)c(N4CCOCC4)c3F)CC3(C(=O)NC(=O)NC3=O)[C@@H]2[C@@H](C)O1 (relative stereo) [Compound 16, rel-(2S,4R,4aR)-10-fluoro-2,4-dimethyl-9-morpholin-4-yl-8-pyrazin-2-yl-1,2,4,4a-tetrahydro-2′H,6H-spiro[1,4-oxazino[4,3-a]quinoline-5,5′-pyrimidine]-2′,4′,6′(1′H,3′H)-trione]	> 64	> 64
COCCOc1c(-c2cnccn2)cc2c(c1F)N1C[C@H](C)O[C@H](C)[C@H]1C1(C2)C(=O)NC(=O)NC1=O (relative stereo) [Compound 17, rel-(2S,4R,4aR)-10-fluoro-9-(2-methoxyethoxy)-2,4-dimethyl-8-pyrazin-2-yl-1,2,4,4a-tetrahydro-2′H,6H-spiro[1,4-oxazino[4,3-a]quinoline-5,5′-pyrimidine]-2′,4′,6′(1′H,3′H)-trione]	> 64	> 64
C[C@H]1CN2c3c(cc(-c4cnccn4)c(OCCF)c3F)CC3(C(=O)NC(=O)NC3=O)[C@@H]2[C@@H](C)O1 (relative stereo) [Compound 18, rel-(2S,4R,4aR)-10-fluoro-9-(2-fluoroethoxy)-2,4-dimethyl-8-pyrazin-2-yl-1,2,4,4a-tetrahydro-2′H,6H-spiro[1,4-oxazino[4,3-a]quinoline-5,5′-pyrimidine]-2′,4′,6′(1′H,3′H)-trione]	> 64	> 64
C[C@H]1CN2c3cc(F)c(-c4cnccn4)cc3CC3(C(=O)NC(=O)NC3=O)[C@@H]2[C@@H](C)O1 (relative stereo) [Compound 19, rel-(2S,4R,4aR)-9-dluoro-2,4-dimethyl-8-pyrazin-2-yl-1,2,4,4a-tetrahydro-2′H,6H-spiro[1,4-oxazino[4,3-a]quinoline-5,5′-pyrimidine]-2′,4′,6′(1′H,3′H)-trione]	2 (≈ 4.7 µM)	2 (≈ 4.7 µM)
C[C@H]1CN2c3ccc(-c4cnccn4)cc3CC3(C(=O)NC(=O)NC3=O)[C@@H]2[C@@H](C)O1 (relative stereo) [Compound 20, rel-(2S,4R,4aR)-2,4-dimethyl-8-pyrazin-2-yl-1,2,4,4a-tetrahydro-2′H,6H-spiro[1,4-oxazino[4,3-a]quinoline-5,5′-pyrimidine]-2′,4′,6′(1′H,3′H)-trione]	2 (≈ 4.91 µM)	4 (≈ 9.82 µM)
COc1nccnc1-c1ccc2c(c1)CC1(C(=O)NC(=O)NC1=O)[C@@H]1[C@@H](C)O[C@@H](C)CN21 (relative stereo) [Compound 21, rel-(2S,4R,4aR)-8-(3-methoxypyrazin-2-yl)-2,4-dimethyl-1,2,4,4a-tetrahydro-2′H,6H-spiro[1,4-oxazino[4,3-a]quinoline-5,5′-pyrimidine]-2′,4′,6′(1′H,3′H)-trione]	32 (≈ 73.2 µM)	16 (≈ 36.6 µM)
C[C@@H]1CN2c3c(cc(-c4cnccn4)c(F)c3F)CC3(C(=O)NC(=O)NC3=O)[C@H]2[C@H](C)O1 [Compound 2, (2R,4S,4aS)-9,10-difluoro-2,4-dimethyl-8-pyrazin-2-yl-1,2,4,4a-tetrahydro-2′H,6H-spiro[1,4-oxazino[4,3-a]quinoline-5,5′-pyrimidine]-2′,4′,6′(1′H,3′H)-trione]	0.5 (≈ 1.13 µM)	0.125 (≈ 0.282 µM)
C[C@H]1CN2c3c(cc(-c4cnccn4)c(F)c3F)CC3(C(=O)NC(=O)NC3=O)[C@@H]2[C@@H](C)O1 [Compound 3, (2S,4R,4aR)-9,10-difluoro-2,4-dimethyl-8-pyrazin-2-yl-1,2,4,4a-tetrahydro-2′H,6H-spiro[1,4-oxazino[4,3-a]quinoline-5,5′-pyrimidine]-2′,4′,6′(1′H,3′H)-trione]	> 64	
C[C@@H]1CN2c3c(cc(-c4cnccn4)c(F)c3F)CC3(C(=O)N(CN4CCOCC4)C(=O)N(CN4CCOCC4)C3=O)[C@H]2[C@H](C)O1 [Compound 4, (2R,4S,4aS)-9,10-difluoro-2,4-dimethyl-1′,3′-bis(morpholin-4-ylmethyl)-8-pyrazin-2-yl-1,2,4,4a-tetrahydro-2′H,6H-spiro[1,4-oxazino[4,3-a]quinoline-5,5′-pyrimidine]-2′,4′,6′(1′H,3′H)-trione]	0.5 (≈ 0.779 µM)	0.25 (≈ 0.39 µM)
C[C@@H]1CN2c3c(cc(-c4cnccn4)c(F)c3F)CC3(C(=O)N(CN4CCN(C)CC4)C(=O)N(CN4CCN(C)CC4)C3=O)[C@H]2[C@H](C)O1 [Compound 5, (2R,4S,4aS)-9,10-difluoro-2,4-dimethyl-1′,3′-bis[(4-methylpiperazin-1-yl)methyl]-8-pyrazin-2-yl-1,2,4,4a-tetrahydro-2′H,6H-spiro[1,4-oxazino[4,3-a]quinoline-5,5′-pyrimidine]-2′,4′,6′(1′H,3′H)-trione]	1 (≈ 1.5 µM)	0.5 (≈ 0.749 µM)
C[C@@H]1CN2c3c(cc(-c4c[n+]([O-])ccn4)c(F)c3F)CC3(C(=O)NC(=O)NC3=O)[C@H]2[C@H](C)O1 [Compound 6, (2R,4S,4aS)-9,10-difluoro-2,4-dimethyl-8-(4-oxidopyrazinpyrazin-2-yl)-1,2,4,4a-tetrahydro-2′H,6H-spiro[1,4-oxazino[4,3-a]quinoline-5,5′-pyrimidine]-2′,4′,6′(1′H,3′H)-trione]	0.25 (≈ 0.544 µM)	0.5 (≈ 1.09 µM)
C[C@@H]1CN2c3c(cc(-c4cnc(N)cn4)c(F)c3F)CC3(C(=O)NC(=O)NC3=O)[C@H]2[C@H](C)O1 [Compound 22, (2R,4S,4aS)-8-(5-aminopyrazin-2-yl)-9,10-difluoro-2,4-dimethyl-1,2,4,4a-tetrahydro-2′H,6H-spiro[1,4-oxazino[4,3-a]quinoline-5,5′-pyrimidine]-2′,4′,6′(1′H,3′H)-trione]	0.5 (≈ 1.09 µM)	0.5 (≈ 1.09 µM)
Cc1cnc(-c2cc3c(c(F)c2F)N2C[C@@H](C)O[C@@H](C)[C@@H]2C2(C3)C(=O)NC(=O)NC2=O)cn1 [Compound 23, (2R,4S,4aS)-9,10-difluoro-2,4-dimethyl-8-(5-methylpyrazin-2-yl)-1,2,4,4a-tetrahydro-2′H,6H-spiro[1,4-oxazino[4,3-a]quinoline-5,5′-pyrimidine]-2′,4′,6′(1′H,3′H)-trione]	1 (≈ 2.19 µM)	0.125 (≈ 0.273 µM)
